Source: patent US6143769A, “Phenylacetic acid benzylamides” (Karl Thomae GmbH, priority 1983, dated 2000)
Like-named read-outs stand apart in the source and are kept apart here.

Test system: blood glucose
Assay: Test for hypoglycemic activity in fasted female rats (oral)
Assay type: in vivo
Details: for change in vivo at 0.5 mg/kg / change in vivo at 1 mg/kg: Rattus norvegicus, po, read-out: Change in glucose content compared with control
Experimental: Blood samples were taken immediately before the administration of the test compound and 1, 2, 3 and 4 hours afterwards, in each case from the retroorbital Venous plexus. 50 μl of each sample were deproteinated with 0.5 ml of 0.33 N perchloric acid and centrifuged. The glucose in the supernatant fluid was measured using the hexokinase method with the aid of an analytical photometer. The statistical evaluation was made using the t-test according to Student with p=0.05 as the limit of significance.

For `C#CCC(NC(=O)Cc1ccc(C(=O)O)c(OCC)c1)c1ccccc1N1CCCCC1` (stereo not drawn) [Y, 2-ethoxy-4-[N-(1-(2-piperidino-phenyl)-3-butyn-1-yl)-aminocarbonylmethyl]benzoic acid], the “Change in glucose content compared with control” value (“Change in glucose content” below) (0.5 mg/kg, 4 h) was “n.s”, the change in vivo at 0.5 mg/kg (0.5 mg/kg, 1 h) was -33% and the change in vivo at 0.5 mg/kg (0.5 mg/kg, 2 h) was -18%. For the same molecule, the change in vivo at 0.5 mg/kg (0.5 mg/kg, 3 h) was -11%.

For `CCOc1cc(CC(=O)NC(C(=O)OC(C)C)c2ccccc2N2CCCCC2)ccc1C(=O)O` (stereo not drawn) [T, 2-ethoxy-4-[N-(α-isopropoxycarbonyl-2-piperidino-benzyl)-aminocarbonylmethyl]benzoic acid], the “Change in glucose content” value (1 mg/kg, 4 h) was “n.s”, the change in vivo at 1 mg/kg (1 mg/kg, 1 h) was -36% and the change in vivo at 1 mg/kg (1 mg/kg, 2 h) was -21%. The change in vivo at 1 mg/kg (1 mg/kg, 3 h) was -18%.

In the case of `CCCC(NC(=O)Cc1ccc(C(=O)O)c(OCC)c1)c1ccccc1N1CCCCCC1` (stereo not drawn) [H, 2-ethoxy-4-[N-{1-(2-hexamethyleneimino-phenyl)-1-butyl}-aminocarbonylmethyl]-benzoic acid], the “Change in glucose content” value (0.5 mg/kg, 4 h) is reported as “n.s”, the change in vivo at 0.5 mg/kg (0.5 mg/kg, 1 h) is reported as -42% and the change in vivo at 0.5 mg/kg (0.5 mg/kg, 2 h) is reported as -34%. The change in vivo at 0.5 mg/kg (0.5 mg/kg, 3 h) was -18%.

Molecule `COc1cc(CC(=O)NC(C)c2ccccc2N2CCCCC2)ccc1C(=O)O` (stereo not drawn) [Compound A, 2-methoxy-4-[N-{1-(2-piperidino-phenyl)-1-ethyl}-aminocarbonylmethyl]-benzoic acid] has a change in vivo at 1 mg/kg (1 mg/kg, 1 h) of -37%, a change in vivo at 1 mg/kg (1 mg/kg, 2 h) of -46% and a change in vivo at 1 mg/kg (1 mg/kg, 3 h) of -23%. For the same molecule, the change in vivo at 1 mg/kg (1 mg/kg, 4 h) was -14%.

`CCOc1cc(CC(=O)NC(c2ccccc2)c2ccccc2N2CCCCC2)ccc1CC#N` (stereo not drawn) [P, [2-ethoxy-4-[N-(α-phenyl-2-piperidino-benzyl)-aminocarbonylmethyl]-phenyl]acetonitrile] gave a change in vivo at 1 mg/kg (1 mg/kg, 1 h) of -12%, a change in vivo at 1 mg/kg (1 mg/kg, 2 h) of -10% and a change in vivo at 1 mg/kg (1 mg/kg, 3 h) of -14%. The change in vivo at 1 mg/kg (1 mg/kg, 4 h) was -14%.

Molecule `CCOc1cc(CC(=O)NC(CC2CCCCC2)c2ccccc2N2CCCCC2)ccc1C(=O)O` (stereo not drawn) [Q, 2-ethoxy-4-[N-(α-cyclohexylmethyl-2-piperidino-benzyl)-aminocarbonyl-methyl]-benzoic acid] has a change in vivo at 0.5 mg/kg (0.5 mg/kg, 1 h) of -22%, a change in vivo at 0.5 mg/kg (0.5 mg/kg, 2 h) of -47% and a change in vivo at 0.5 mg/kg (0.5 mg/kg, 3 h) of -45%. It also gave a change in vivo at 0.5 mg/kg (0.5 mg/kg, 4 h) of -45%.

`CCCC(NC(=O)Cc1ccc(CC#N)c(OCC)c1)c1ccccc1N1CCCCC1` (stereo not drawn) [O, [2-ethoxy-4-[N-(1-(2-piperidino-phenyl)-1-butyl)-aminocarbonylmethyl]-phenyl]-acetonitrile] showed a change in vivo at 1 mg/kg (1 mg/kg, 1 h) of -29%, a change in vivo at 1 mg/kg (1 mg/kg, 2 h) of -37% and a change in vivo at 1 mg/kg (1 mg/kg, 3 h) of -35%. The change in vivo at 1 mg/kg (1 mg/kg, 4 h) was -34%.

`C=CCC(NC(=O)Cc1ccc(C(=O)O)c(OCC)c1)c1ccccc1N1CCCCC1` (stereo not drawn) [W, 2-ethoxy-4-[N-(1-(2-piperidino-phenyl)-3-buten-1-yl)-aminocarbonylmethyl]benzoic acid] was tested, and the change in vivo at 0.5 mg/kg (0.5 mg/kg, 1 h) was -42%, the change in vivo at 0.5 mg/kg (0.5 mg/kg, 2 h) was -39% and the change in vivo at 0.5 mg/kg (0.5 mg/kg, 3 h) was -28%. The change in vivo at 0.5 mg/kg (0.5 mg/kg, 4 h) was -35%.

With `CCCCC(NC(=O)Cc1ccc(C(=O)O)c(OCC)c1)c1ccccc1N1CCCCC1` (stereo not drawn) [L, 2-ethoxy-4-[N-{1-(2-piperidino-phenyl)-1-pentyl}-aminocarbonylmethyl]-benzoic acid] the change in vivo at 0.5 mg/kg (0.5 mg/kg, 1 h) was -42%, the change in vivo at 0.5 mg/kg (0.5 mg/kg, 2 h) was -45% and the change in vivo at 0.5 mg/kg (0.5 mg/kg, 3 h) was -38%. The change in vivo at 0.5 mg/kg (0.5 mg/kg, 4 h) was -39%.

Molecule `CCOc1cc(CC(=O)NC(CC2CC2)c2ccccc2N2CCCCC2)ccc1C(=O)O` (stereo not drawn) [U, 2-ethoxy-4-[N-(α-cyclopropylmethyl-2-piperidino-benzyl)-aminocarbonylmethyl]benzoic acid] has a change in vivo at 0.5 mg/kg (0.5 mg/kg, 1 h) of -45%, a change in vivo at 0.5 mg/kg (0.5 mg/kg, 2 h) of -45% and a change in vivo at 0.5 mg/kg (0.5 mg/kg, 3 h) of -36%. The change in vivo at 0.5 mg/kg (0.5 mg/kg, 4 h) was -36%.

`CCOc1cc(CC(=O)NC(CC2CCCO2)c2ccccc2N2CCCCC2)ccc1C(=O)O` (stereo not drawn) [V, 2-ethoxy-4-[N-(α-(tetrahydrofuran-2-yl-methyl)-2-piperidino-benzyl)-aminocarbonylmethyl]benzoic acid] showed a change in vivo at 0.5 mg/kg (0.5 mg/kg, 1 h) of -46%, a change in vivo at 0.5 mg/kg (0.5 mg/kg, 2 h) of -25% and a change in vivo at 0.5 mg/kg (0.5 mg/kg, 3 h) of -13%. The change in vivo at 0.5 mg/kg (0.5 mg/kg, 4 h) was -10%.

In the case of `COc1cc(CC(=O)NC(c2ccccc2)c2ccccc2N2CCCCC2)ccc1C(=O)O` (stereo not drawn) [C, 2-methoxy-4-[N-(α-phenyl-2-piperidino-benzyl)-aminocarbonymethyl]-benzoic acid], the change in vivo at 1 mg/kg (1 mg/kg, 1 h) is reported as -38%, the change in vivo at 1 mg/kg (1 mg/kg, 2 h) is reported as -41% and the change in vivo at 1 mg/kg (1 mg/kg, 3 h) is reported as -38%. The change in vivo at 1 mg/kg (1 mg/kg, 4 h) was -34%.

For `CCCOc1cc(CC(=O)NC(CCC)c2ccccc2N2CCCCC2)ccc1C(=O)O` (stereo not drawn) [K, 2-n-propoxy-4-[N-{1-(2-piperidino-phenyl)-1-butyl}-aminocarbonylmethyl]-benzoic acid], the “Change in glucose content” value (0.5 mg/kg, 4 h) was “n.s”, the change in vivo at 0.5 mg/kg (0.5 mg/kg, 1 h) was -34% and the change in vivo at 0.5 mg/kg (0.5 mg/kg, 2 h) was -36%. The change in vivo at 0.5 mg/kg (0.5 mg/kg, 3 h) was -24%.

`CCOc1cc(CC(=O)NC(C(=O)OC)c2ccccc2N2CCCCC2)ccc1C(=O)O` (stereo not drawn) [S, 2-ethoxy-4-[N-(α-methoxycarbonyl-2-piperidino-benzyl)-aminocarbonylmethyl]-benzoic acid] showed a change in vivo at 1 mg/kg (1 mg/kg, 1 h) of -42%, a change in vivo at 1 mg/kg (1 mg/kg, 2 h) of -35% and a change in vivo at 1 mg/kg (1 mg/kg, 3 h) of -28%. The change in vivo at 1 mg/kg (1 mg/kg, 4 h) was -18%.

For `CCOC(=O)C(NC(=O)Cc1ccc(C(=O)O)c(OCC)c1)c1ccccc1N1CCCCC1` (stereo not drawn) [R, 2-ethoxy-4-[N-(α-ethoxycarbonyl-2-piperidino-benzyl)-aminocarbonylmethyl]-benzoic acid], the “Change in glucose content” value (1 mg/kg, 3 h) was “n.s”, the “Change in glucose content” value (1 mg/kg, 4 h) was “n.s” and the change in vivo at 1 mg/kg (1 mg/kg, 1 h) was -33%. The change in vivo at 1 mg/kg (1 mg/kg, 2 h) was -17%.

`C=C(C)CC(NC(=O)Cc1ccc(C(=O)O)c(OCC)c1)c1ccccc1N1CCCCC1` (stereo not drawn) [X, 2-ethoxy-4-[N-(1-(2-piperidino-phenyl)-3-methyl-3-buten-1-yl)-aminocarbonylmethyl]benzoic acid] was tested, and the change in vivo at 0.5 mg/kg (0.5 mg/kg, 1 h) was -44%, the change in vivo at 0.5 mg/kg (0.5 mg/kg, 2 h) was -41% and the change in vivo at 0.5 mg/kg (0.5 mg/kg, 3 h) was -31%. For the same molecule, the change in vivo at 0.5 mg/kg (0.5 mg/kg, 4 h) was -28%.

For `CCCC(NC(=O)Cc1ccc(C(=O)O)c(OCC)c1)c1ccccc1N1CCCCC1` (stereo not drawn) [B, 2-ethoxy-4-[N-{1-(2-piperidino-phenyl)-1-butyl}-aminocarbonylmethyl]-benzoic acid], the change in vivo at 0.5 mg/kg (0.5 mg/kg, 1 h) was -43%, the change in vivo at 0.5 mg/kg (0.5 mg/kg, 2 h) was -36% and the change in vivo at 0.5 mg/kg (0.5 mg/kg, 3 h) was -34%. The change in vivo at 0.5 mg/kg (0.5 mg/kg, 4 h) was -35%, the change in vivo at 1 mg/kg (1 mg/kg, 1 h) was -38% and the change in vivo at 1 mg/kg (1 mg/kg, 2 h) was -49%. The change in vivo at 1 mg/kg (1 mg/kg, 3 h) was -38% and the change in vivo at 1 mg/kg (1 mg/kg, 4 h) was -33%.

For `CCOc1cc(CC(=O)NC(c2ccccc2)c2ccc(C)cc2N2CCCCC2)ccc1C(=O)O` (stereo not drawn) [M, 2-ethoxy-4-[N-(4-methyl-α-phenyl1-2-piperidino-benzyl)-aminocarbonylmethyl]-benzoic acid], the change in vivo at 1 mg/kg (1 mg/kg, 1 h) was -44%, the change in vivo at 1 mg/kg (1 mg/kg, 2 h) was -41% and the change in vivo at 1 mg/kg (1 mg/kg, 3 h) was -35%. The change in vivo at 1 mg/kg (1 mg/kg, 4 h) was -27%.

Molecule `CCOc1cc(CC(=O)NC(C)c2ccccc2N2CCCCC2)ccc1C(=O)O` (stereo not drawn) [F, 2-ethoxy-4-[N-{1-(2-piperidino-phenyl)-1-ethyl}-aminocarbonylmethyl]-benzoic acid] has a change in vivo at 1 mg/kg (1 mg/kg, 1 h) of -44%, a change in vivo at 1 mg/kg (1 mg/kg, 2 h) of -44% and a change in vivo at 1 mg/kg (1 mg/kg, 3 h) of -40%. The change in vivo at 1 mg/kg (1 mg/kg, 4 h) was -30%.

Molecule `CCCC(NC(=O)Cc1ccc(C(=O)O)c(OCC)c1)c1ccccc1N1CCCCC1` (single isomer, unassigned; (+)) [E, (+)-2-ethoxy-4-[N-{1-(2-piperidino-phenyl)-1-butyl}-aminocarbonylmethyl]-benzoic acid] has a change in vivo at 0.5 mg/kg (0.5 mg/kg, 1 h) of -40%, a change in vivo at 0.5 mg/kg (0.5 mg/kg, 2 h) of -39% and a change in vivo at 0.5 mg/kg (0.5 mg/kg, 3 h) of -36%. The change in vivo at 0.5 mg/kg (0.5 mg/kg, 4 h) was -36%.
